What was measured:
[1] = target: T1, human 5-HT2C receptor (Homo sapiens, UniProt P28335); test: 5-HT2C receptor-stimulated calcium mobilization (FLIPR) in CHO cells; type: cell-based; details: for Emax: CHO, read-out: 5-HT2C Function EMax (%); for EC50: read-out: 5-HT2C Function EC50
T1 sequence (P28335 33-458): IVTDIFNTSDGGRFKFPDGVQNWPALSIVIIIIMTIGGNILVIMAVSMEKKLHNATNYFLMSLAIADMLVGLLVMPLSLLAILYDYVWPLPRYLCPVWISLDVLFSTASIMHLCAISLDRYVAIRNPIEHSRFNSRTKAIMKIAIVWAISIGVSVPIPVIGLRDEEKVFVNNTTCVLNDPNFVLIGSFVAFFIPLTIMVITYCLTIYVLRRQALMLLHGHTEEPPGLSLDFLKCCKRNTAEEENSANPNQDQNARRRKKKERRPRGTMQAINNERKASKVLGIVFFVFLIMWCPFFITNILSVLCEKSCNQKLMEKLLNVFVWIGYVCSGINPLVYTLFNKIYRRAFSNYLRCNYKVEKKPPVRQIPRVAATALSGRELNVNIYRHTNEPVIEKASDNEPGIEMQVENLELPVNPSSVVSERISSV

[2] = target: T2, human 5-hydroxytryptamine-2C (h5-HT2C) receptor (Homo sapiens, UniProt P28335); test: 5-HT2C binding: [125I]DOI displacement in membranes of transfected CHO cells; details: read-out: 5-HT2C Binding Ki avg
T2 construct: expressed in transfected cells; host or cells: CHO (Chinese Hamster Ovary) cells; membranes
T2 sequence (P28335 33-458): T1 sequence (P28335 33-458)

Row | Emax [1] [%] | EC50 [1] [µM] | Ki [2] [µM] | SMILES
1 | 40 | < 0.1 | < 0.05 | NC[C@H]1COc2ccc(F)c(-c3ccccc3Cl)c2O1 [Compound I-71, (2S)-[8-(2-Chloro-phenyl)-7-fluoro-2,3-dihydro-benzo[1,4]dioxin-2-yl]-methylamine]
2 | 70 | < 0.1 | < 0.05 | COc1ccccc1-c1cc(F)cc2c1OC(CN)O2 (centres unmarked) [Compound I-76, 1-[6-Fluoro-4-(2-methoxyphenyl)-1,3-benzodioxol-2-yl]methanamine]
3 | 50 | < 0.1 | < 0.05 | COc1cccc(-c2cccc3c2OC(CN)CO3)c1OC (centres unmarked) [Compound I-9, {[8-(2,3-Dimethoxyphenyl)-2,3-dihydro-1,4-benzodioxin-2-yl]methyl}amine]
4 | 80 | < 0.1 | < 0.05 | NCC1Oc2cc(Cl)cc(-c3ccc(Cl)cc3Cl)c2O1 (centres unmarked) [Compound I-96, [6-Chloro-4-(2,4-dichloro-phenyl)-benzo[1,3]dioxol-2-yl]-methylamine]
5 | 60 | < 0.1 | 0.05 to 0.2 | COc1ccccc1-c1cccc2c1OC(CN)CO2 (centres unmarked) [Compound I-5, {[8-(2-Methoxyphenyl)-2,3-dihydro-1,4-benzodioxin-2-yl]methyl}amine]
6 | – | > 0.5 | 0.05 to 0.2 | CCCNCC1COc2cccc(-c3ccc(Cl)cc3Cl)c2O1 (centres unmarked) [Compound I-35, N-{[8-(2,4-Dichlorophenyl)-2,3-dihydro-1,4-benzodioxin-2-yl]methyl}propan-1-amine]
7 | 20 | 0.1 to 0.5 | > 0.2 | CNCC1COc2cccc(-c3ccccc3OC)c2O1 (centres unmarked) [Compound I-19, {[8-(2-Methoxyphenyl)-2,3-dihydro-1,4-benzodioxin-2-yl]methyl}methylamine]
8 | 50 | 0.1 to 0.5 | > 0.2 | Cc1cccc(-c2cccc3c2OC(CN)CO3)c1C (centres unmarked) [Compound I-10, {[8-(2,3-Dimethylphenyl)-2,3-dihydro-1,4-benzodioxin-2-yl]methyl}amine]
9 | 40 | 0.1 to 0.5 | < 0.05 | NC[C@H]1COc2cc(Cl)cc(-c3ccccc3F)c2O1 [Compound I-59, (2S)-[6-Chloro-8-(2-fluoro-phenyl)-2,3-dihydro-benzo[1,4]dioxin-2-yl]-methylamine]
10 | 80 | < 0.1 | < 0.05 | CNCC1Oc2cc(F)cc(-c3ccccc3Cl)c2O1 (centres unmarked) [Compound I-87, 1-[4-(2-Chlorophenyl)-6-fluoro-1,3-benzodioxol-2-yl]-N-methylmethanamine]
11 | 70 | < 0.1 | < 0.05 | NCC1COc2cccc(-c3ccc(Cl)cc3Cl)c2O1 (centres unmarked) [Compound I-7, {[8-(2,4-Dichlorophenyl)-2,3-dihydro-1,4-benzodioxin-2-yl]methyl}amine]
12 | 60 | < 0.1 | 0.05 to 0.2 | COc1ccc(Cl)cc1-c1cccc2c1OC(CN)CO2 (centres unmarked) [Compound I-16, {[8-(5-Chloro-2-methoxyphenyl)-2,3-dihydro-1,4-benzodioxin-2-yl]methyl}amine]
13 | – | > 0.5 | 0.05 to 0.2 | Clc1ccc(-c2cccc3c2OC(CNC2CC2)CO3)c(Cl)c1 (centres unmarked) [Compound I-44, N-{[8-(2,4-Dichlorophenyl)-2,3-dihydro-1,4-benzodioxin-2-yl]methyl}cyclopropanamine]
14 | 70 | < 0.1 | < 0.05 | NCC1COc2cccc(-c3ccc(F)cc3F)c2O1 (centres unmarked) [Compound I-14, {[8-(2,4-Difluorophenyl)-2,3-dihydro-1,4-benzodioxin-2-yl]methyl}amine]
15 | 90 | < 0.1 | < 0.05 | Cc1ccccc1-c1cc(F)cc2c1OC(CN)O2 (centres unmarked) [Compound I-80, 1-[4-(2-Methyl-phenyl)-6-fluoro-1,3-benzodioxol-2-yl]methanamine]
16 | 60 | < 0.1 | < 0.05 | NC[C@H]1COc2cc(F)cc(-c3c(Cl)cccc3Cl)c2O1 [Compound I-47, {[(2S)-8-(2,6-Dichlorophenyl)-6-fluoro-2,3-dihydro-1,4-benzodioxin-2-yl]methyl}amine]
17 | 50 | < 0.1 | < 0.05 | NC[C@H]1COc2cc(Cl)cc(-c3ccccc3Cl)c2O1 [Compound I-58, (2S)-[6-Chloro-8-(2-chloro-phenyl)-2,3-dihydro-benzo[1,4]dioxin-2-yl]-methylamine]
18 | 30 | > 0.5 | > 0.2 | Clc1ccccc1-c1cccc2c1OC(CNC1CC1)CO2 (centres unmarked) [Compound I-43, N-{[8-(2-Chlorophenyl)-2,3-dihydro-1,4-benzodioxin-2yl]methyl}cyclopropanamine]

Row | Emax [1] [%] | EC50 [1] [µM] | Ki [2] [µM] | SMILES
19 | 50 | < 0.1 | < 0.05 | CNCC1COc2cccc(-c3ccccc3F)c2O1 (centres unmarked) [Compound I-18, {[8-(2-Fluorophenyl)-2,3-dihydro-1,4-benzodioxin-2-yl]methyl}methylamine]
20 | 60 | < 0.1 | < 0.05 | NCC1COc2cccc(-c3cc(Cl)ccc3Cl)c2O1 (centres unmarked) [Compound I-8, {[8-(2,5-Dichlorophenyl)-2,3-dihydro-1,4-benzodioxin-2-yl]methyl}amine]
21 | 30 | > 0.5 | 0.05 to 0.2 | CCNCC1COc2cccc(-c3ccc(Cl)cc3Cl)c2O1 (centres unmarked) [Compound I-33, N-{[8-(2,4-Dichlorophenyl)-2,3-dihydro-1,4-benzodioxin-2-yl]methyl}ethanamine]
22 | 50 | 0.1 to 0.5 | < 0.05 | NC[C@H]1COc2cc(Cl)cc(-c3cc(Cl)ccc3Cl)c2O1 [Compound I-67, (2S)-[6-Chloro-8-(2,5-dichloro-phenyl)-2,3-dihydro-benzo[1,4]dioxin-2-yl]-methyl amine]
23 | – | > 0.5 | > 0.2 | CC(C)NCC1COc2cccc(-c3ccccc3Cl)c2O1 (centres unmarked) [Compound I-36, N-{[8-(2-Chlorophenyl)-2,3-dihydro-1,4-benzodioxin-2-yl]methyl}propan-2-amine]
24 | 80 | > 0.5 | < 0.05 | NC[C@@H]1Oc2cc(F)cc(-c3c(Cl)cccc3Cl)c2O1 [Compound I-86, 1-[(2R)-4-(2,6-dichlorophenyl)-6-fluoro-1,3-benzodioxol-2-yl]methanamine]
25 | 60 | < 0.1 | < 0.05 | Cc1ccccc1-c1cccc2c1OC(CN)CO2 (centres unmarked) [Compound I-3, {[8-(2-Methylphenyl)-2,3-dihydro-1,4-benzodioxin-2-yl]methyl}amine]
26 | 60 | 0.1 to 0.5 | < 0.05 | Cc1cccc(C)c1-c1cc(Cl)cc2c1O[C@@H](CN)CO2 [Compound I-69, (2S)-[6-Chloro-8-(2,6-dimethyl-phenyl)-2,3-dihydro-benzo[1,4]dioxin-2-yl]-methyl amine]
27 | 40 | < 0.1 | < 0.05 | CNCC1COc2cccc(-c3ccccc3Cl)c2O1 (centres unmarked) [Compound I-21, {[8-(2-Chlorophenyl)-2,3-dihydro-1,4-benzodioxin-2-yl]methyl}methylamine]
28 | 70 | 0.1 to 0.5 | 0.05 to 0.2 | NCC1COc2cccc(-c3cccc(Cl)c3Cl)c2O1 (centres unmarked) [Compound I-6, {[8-(2,3-Dichlorophenyl)-2,3-dihydro-1,4-benzodioxin-2-yl]methyl}amine]
29 | – | > 0.5 | > 0.2 | Clc1ccc(-c2cccc3c2OC(CNCC2CC2)CO3)c(Cl)c1 (centres unmarked) [Compound I-42, (Cyclopropylmethyl) {[8-(2,4-dichlorophenyl)-2,3-dihydro-1,4-benzodioxin-2-yl]methyl}amine]
30 | 20 | > 0.5 | 0.05 to 0.2 | Clc1ccccc1-c1cccc2c1OC(CNCC1CC1)CO2 (centres unmarked) [Compound I-41, {[8-(2-Chlorophenyl)-2,3-dihydro-1,4-benzodioxin-2-yl]methyl}(cyclopropylmethyl)-amine]
31 | 40 | > 0.5 | 0.05 to 0.2 | CNCC1COc2cccc(-c3ccccc3C(F)(F)F)c2O1 (centres unmarked) [Compound I-20, N-Methyl-1-{8-[2-(trifluoromethyl)phenyl]-2,3-dihydro-1,4-benzodioxin-2-yl}methanamine]
32 | 50 | 0.1 to 0.5 | < 0.05 | Cc1ccccc1-c1cc(Cl)cc2c1O[C@@H](CN)CO2 [Compound I-60, (2S)-[6-Chloro-8-(2-methyl-phenyl)-2,3-dihydro-benzo[1,4]dioxin-2-yl]-methylamine]
33 | 20 | 0.1 to 0.5 | > 0.2 | CNCC1COc2cccc(-c3cc(Cl)ccc3OC)c2O1 (centres unmarked) [Compound I-31, {[8-(5-Chloro-2-methoxyphenyl)-2,3-dihydro-1,4-benzodioxin-2-yl]methyl}methylamine]
34 | 70 | < 0.1 | < 0.05 | Cc1cccc(C)c1-c1cccc2c1OC(CN)CO2 (centres unmarked) [Compound I-12, {[8-(2,6-Dimethylphenyl)-2,3-dihydro-1,4-benzodioxin-2-yl]methyl}amine]
35 | 50 | 0.1 to 0.5 | < 0.05 | COc1ccccc1-c1cc(Cl)cc2c1O[C@@H](CN)CO2 [Compound I-61, (2S)-[6-Chloro-8-(2-methoxy-phenyl)-2,3-dihydro-benzo[1,4]dioxin-2-yl]-methylamine]

— patent US20060241172A1, “Benzodioxane and benzodioxolane derivatives and uses thereof” (Wyeth, priority 2005, published 2006)
